Broadly, the Tmax is the time from dosing to the highest level. By Cmax is commonly meant the maximum level reached in the sampled fluid or tissue.

This is an account of results in patent US11253479B2, “Hydrobromide salt of an anti-HIV compound” (Janssen Sciences Ireland UC, priority 2006, dated 2022).

The structures appear in SMILES notation.

Series [1] in a line: Stability of salts of compound (A) (decomposition to compound (A) and free acid). The following applies: partial or complete decomposition to compound (A) and the free acid. The class given is physicochemical. From the text: Contrary to a number of other salts of compound (A) that are unstable, the compound of formula (I) is a stable salt.
A short description of series [2]: In-vivo study of bioavailability in dogs of capsules filled with salts. How it is done:
Four male dogs were used per tested formulation. The animals were randomized over the test groups by a computer-generated random algorithm according to body weight, with all animals within ±20% of the sex mean. A health inspection was performed prior to commencement of treatment to ensure that the animals were in a good state of health. The dogs were subjected to an acclimatization period of at least 5 days before the start of treatment under laboratory conditions. A controlled environment was maintained in the room. The animals were dosed once orally with the formulations of example 1, and blood was collected from all animals under light ether anaesthesia at regular intervals for a period of 12, 24 or 48 hours after dosing.
The mean pharmacokinetic parameters relating to the mean plasma concentration with time of each test formulation are shown in Table 3. The standard deviation, where calculated, is shown between brackets.

The mark [3] stands for this setting: male dogs, dosed once orally, capsules, dose normalized to 1 mg/kg, mean.

For `Br.Cc1cc(C#N)cc(C)c1Oc1nc(Nc2ccc(C#N)cc2)nc(N)c1Br` [HBr salt, 4-[[4-amino-5-bromo-6-(4-cyano-2,6-dimethylphenyloxy)-2-pyrimidinyl]amino]benzonitrile hydrobromide], the “stability of the salt” value in series [1] is “stable”. The Tmax in series [2] (dog, plasma, po, 118.6 mg salt per capsule, male dogs, dosed once orally, capsules of example 1, mean) is 4.5 h. Moreover, in series [2] (dog, plasma, po, 118.6 mg salt per capsule, male dogs, dosed once orally, capsules, without dose normalization, mean), the peak concentration (Cmax) was found to be 366 ng/mL. Also, the AUC(0-t) in series [2] (dog, plasma, po, 118.6 mg salt per capsule, male dogs, dosed once orally, capsules, without dose normalization, mean, read-out: AUC0-last (without dose normalization)) is 5860 ng·h/mL. For the same compound, the “bioavailability in dogs compared with other salts (Cmax, AUC0-last)” value in series [2] (dogs, oral capsules) is on record as “improved bioavailability”. Further, the tlast in series [2] (male dogs, dosed once orally, capsules of example 1, mean) is on record as 48 h. Further, in series [2] (setting [3]), the “AUC0-last (dose normalized to 1 mg/kg)” value amounted to 516.1 ng·h/mL and the “Cmax (dose normalized to 1 mg/kg)” value came to 31.73 ng/mL.
